# From US5567692A, “9-[(substituted glycyl) amido)]-6-demethyl-6-deoxytetracyclines” (priority 1995, dated 1996)
# Assays:
# Assay type in all cases: cell-based
# Streptococcus pneumoniae = assay: MIC range, recent clinical and veterinary isolates; settings: 18 h, read-out: MIC Range
# Proteus mirabilis = assay: MIC range, recent clinical and veterinary isolates; settings: 18 h, read-out: MIC Range
# Clostridium spp. = assay: MIC range, recent clinical and veterinary isolates; settings: [9] isolates
# S. aureus UBMS 88-4 = assay: MIC, agar dilution; settings: Staphylococcus aureus, UBMS884, 18 h; S. aureus UBMS 88-4
# Enterococcus 12201 = assay: MIC, agar dilution; settings: Enterococcus, 12201, 18 h
# E. coli UBMS 90-5 = assay: microbe, parasite or virus in culture; settings: Escherichia coli, UBMS905, 18 h, E. coli UBMS 90-5; read-out: MIC
# Xanthamonas maltophilia = assay: MIC range, recent clinical and veterinary isolates; settings: 18 h, read-out: MIC Range
# Moraxella catarrhalis = assay: MIC range, recent clinical and veterinary isolates; settings: 18 h, read-out: MIC Range
# [1] = test system: Ps. aeruginosa ATCC 27853; assay: MIC, agar dilution; settings: Pseudomonas aeruginosa, ATCC27853, 18 h
# Enterococcus faecalis = assay: MIC range, recent clinical and veterinary isolates; settings: 18 h, read-out: MIC Range
# Streptococcus pyogenes = assay: MIC range, recent clinical and veterinary isolates; settings: 18 h, read-out: MIC Range
# S. aureus NEMC 8769 = assay: MIC, agar dilution; settings: Staphylococcus aureus, NEMC8769, 18 h
# Citrobacter diversus = assay: MIC range, recent clinical and veterinary isolates; settings: Citrobacter koseri, 18 h, read-out: MIC Range
# [2] = test system: Staphylococcus aureus, (methicillin-susceptible); assay: MIC range, recent clinical and veterinary isolates; settings: Staphylococcus aureus, 18 h, read-out: MIC Range
# Clostridium perfringens = assay: microbe, parasite or virus in culture; settings: [16] isolates
# E. coli ATCC 25922 = assay: MIC, agar dilution; settings: Escherichia coli, ATCC25922, 18 h
# [3] = test system: S. hemolyticus AVHAH 88-3; assay: MIC, agar dilution; settings: Streptococcus pyogenes, AVHAH883, 18 h
# S. marcescens FPOR 8733 = assay: MIC, agar dilution; settings: Serratia marcescens, FPOR8733, 18 h
# Enterobacter cloacae = assay: MIC range, recent clinical and veterinary isolates; settings: 18 h, read-out: MIC Range
# Enterococcus faecium = assay: MIC range, recent clinical and veterinary isolates; settings: 18 h, read-out: MIC Range
# S. aureus UBMS 90-3 = assay: MIC, agar dilution; settings: Staphylococcus aureus, UBMS903, 18 h, S. aureus UBMS 90-3
# Pseudomonas aeruginosa = assay: MIC range, recent clinical and veterinary isolates; settings: 18 h, read-out: MIC Range
# Klebsiella oxytoca = assay: MIC range, recent clinical and veterinary isolates; settings: 18 h, read-out: MIC Range
# Enterobacter aerogenes = assay: MIC range, recent clinical and veterinary isolates; settings: Klebsiella aerogenes, 18 h, read-out: MIC Range
# [4] = test system: Bordetella bronchiseptica (Veterinary); assay: MIC range, recent clinical and veterinary isolates; settings: Bordetella bronchiseptica, 18 h, read-out: MIC Range
# S. aureus SMITH (MP) = assay: MIC, agar dilution; settings: Staphylococcus aureus, 18 h; S. aureus SMITH (MP)
# Haemophilus influenzae = assay: MIC range, recent clinical and veterinary isolates; settings: 18 h, [15] isolates
# E. coli J3272 Tet sens = assay: MIC, agar dilution; settings: Escherichia coli, J3272TETSENS, 18 h
# Clostridium difficile = assay: MIC range, recent clinical and veterinary isolates; settings: Clostridioides difficile, 18 h, read-out: MIC Range
# Citrobacter freundii = assay: MIC range, recent clinical and veterinary isolates; settings: 18 h, read-out: MIC Range
# [5] = test system: Bacteroides fragilis group; assay: MIC range, recent clinical and veterinary isolates; settings: Bacteroides fragilis, 18 h, read-out: MIC Range
# E. coli J2175 = assay: MIC, agar dilution; settings: Escherichia coli, 18 h, read-out: MIC
# [6] = test system: Pasturella multocida (Veterinary); assay: MIC range, recent clinical and veterinary isolates; settings: 18 h, [17] isolates
# Proteus vulgaris = assay: MIC range, recent clinical and veterinary isolates; settings: 18 h, read-out: MIC Range
# S. aureus ATCC 29213 = assay: MIC, agar dilution; settings: Staphylococcus aureus, ATCC29213, 18 h, S. aureus ATCC 29213
# Streptococcus agalactiae = assay: MIC range, recent clinical and veterinary isolates; settings: 18 h, read-out: MIC Range
smiles,measurement,setting,value
"CN(C)[C@@H]1C(O)=C(C(N)=O)C(=O)[C@@]2(O)C(O)=C3C(=O)c4c(O)cccc4[C@@](C)(O)[C@H]3C[C@@H]12 [T, Tetracycline]",MIC,Streptococcus pneumoniae,0.12 to 2 µg/mL
same,MIC,Proteus mirabilis,0.5 to 64 µg/mL
same,MIC Range,Clostridium spp.,0.015 to 64 µg/mL
same,MIC,S. aureus UBMS 88-4,0.12 µg/mL
same,MIC,Enterococcus 12201,32 µg/mL
same,MIC,E. coli UBMS 90-5,0.5 µg/mL
same,MIC,Xanthamonas maltophilia,8 to 16 µg/mL
same,MIC,Moraxella catarrhalis,0.06 to 0.5 µg/mL
same,MIC,[1],8 µg/mL
same,MIC,Enterococcus faecalis,0.12 to 64 µg/mL
same,MIC,Streptococcus pyogenes,0.12 to 16 µg/mL
same,MIC,S. aureus NEMC 8769,0.06 µg/mL
same,MIC,Citrobacter diversus,0.5 to 4 µg/mL
same,MIC,[2],0.12 to 1 µg/mL
same,MIC Range,Clostridium perfringens,0.015 to 16 µg/mL
same,MIC,E. coli ATCC 25922,0.5 µg/mL
same,MIC,[3],0.5 µg/mL
same,MIC,S. marcescens FPOR 8733,> 32 µg/mL
same,MIC,Enterobacter cloacae,0.5 to 2 µg/mL
same,MIC,Enterococcus faecium,0.12 to 64 µg/mL
same,MIC,S. aureus UBMS 90-3,0.12 µg/mL
same,MIC,Pseudomonas aeruginosa,2 to 32 µg/mL
same,MIC,Klebsiella oxytoca,0.5 to 1 µg/mL
same,MIC,Enterobacter aerogenes,0.5 to 1 µg/mL
same,MIC,[4],0.12 to 0.25 µg/mL
same,MIC,S. aureus SMITH (MP),0.12 µg/mL
same,MIC,Haemophilus influenzae,1 to 32 µg/mL
same,MIC,E. coli J3272 Tet sens,1 µg/mL
same,MIC,Clostridium difficile,0.12 to 32 µg/mL
same,MIC,Citrobacter freundii,0.5 to 16 µg/mL
same,MIC,[5],0.25 to 32 µg/mL
same,MIC,E. coli J2175,1 µg/mL
same,MIC,[6],0.06 to 16 µg/mL
same,MIC,Proteus vulgaris,0.25 to 64 µg/mL
same,MIC,S. aureus ATCC 29213,< 0.015 µg/mL
same,MIC,Streptococcus agalactiae,0.25 to 64 µg/mL
